Two molecules from PMC6155162, “Identification of mesothelioma-specific sialylated epitope recognized with monoclonal antibody SKM9-2 in a mucin-like membrane protein HEG1” (Scientific Reports, 2018) can be followed below.

Entries after “also recorded” stand apart in the source; their conditions may differ.

The test system of assay [1] is anti-sialyl Lewis^X (CSLEX1). The experiment in a line: SPR analysis of binding of anti-sialyl LewisX to SKMepmin3. Particulars: purified SKMepmin3 on sensor chip NTA, analyte 5 µg/mL. The method, then: (§1) The binding of SKM9-2 or lectin to SKMepmin was measured by SPR analysis. SKMepmin was diluted with a running buffer (10 mM HEPES buffer (pH 8.1) containing 150 mM NaCl and 0.005% Tween-20), flowed on Ni^2+-binding sensor chip NTA (GE Healthcare), and affinity-bound through His-tag as a ligand on the sensor chip. Binding analysis of SKM9-2 was performed in a running buffer containing 50 µM EDTA. A non-treated flow cell was used as a reference cell. SKM9-2, anti-sialyl Lewis^X (CSLEX1, Becton, Dickinson and Company Japan, Tokyo, Japan), rACG (Wako Pure Chemical Industries), biotinylated ABA (J-Oil Mills, Inc., Tokyo, Japan), or biotinylated Jacalin (Vector Laboratories, Inc., Burlingame, CA, USA) (each 5 µg/mL) was injected as an analyte with the running buffer. As a regeneration buffer, 350 mM EDTA was used. The dissociation constant was calculated using the manufacturer’s instructions.
Supplementary Fig. S2. SPR analysis of binding of anti-sialyl LewisX to SKMepmin3.
Purified SKMepmin3 was immobilized as a ligand on Ni2+-binding sensor chip NTA. The analytes
were used at the concentration of 5 µg/mL.
Background: SPR reads the build-up and loss of mass on a sensor chip optically.

The subject of a further assay is Jacalin. Description: SPR lectin binding analysis of glycosidase-treated SKMepmin3: Jacalin. Here is the method:
(§2) Figure 7 SPR analysis of bindings of lectin and SKM9-2 to glycosidase-treated SKMepmin3. Purified SKMepmin3 was incubated with α2-3 Neuraminidase S, Neuraminidase A, or Neuraminidase A + O-Glycosidase; and then was immobilized as a ligand on Ni^2+-binding sensor chip NTA. The analytes were used at a concentration of 5 µg/mL. (a) ABA, (b) Jacalin, (c) rACG, (d) SKM9-2. Glycosidase-digested sample was not tested in the experiment with rACG.
(§3) Cell lysate or SKMepmin3 was treated with α2-3 Neuraminidase S, α2-3, 6, 8, 9 Neuraminidase A, and O-Glycosidase (New England Biolabs Japan, Tokyo, Japan) in 50 mM sodium phosphate (pH 7.5) containing 1% Nonidet P-40, according to the manufacturer’s instructions. The cell lysate sample was resolved by 4–15% or 6% SDS-PAGE under reducing conditions and detected by western blotting using SKM9-2. The analysis of the SKMepmin3 sample was performed by SPR.
as §1

Assay [2] deals with recombinant Agrocybe cylindracea lectin (rACG). The experiment in a line: SPR lectin binding analysis of SKMepmin3: rACG. The conditions noted are these: non-treated SKMepmin3, rACG 5 µg/mL. The method, then: as §2, §1
Assay [3] concerns Agaricus bisporus agglutinin (ABA). The experiment in a line: SPR lectin binding analysis of glycosidase-treated SKMepmin3: ABA. The conditions noted are these: ABA 5 µg/mL. The method, then: as §2, §3, §1
The target of assay [4] is SKM9-2. Description: SPR analysis of binding between SKM9-2 and soluble His-tagged minimum epitope peptides (SKMepmin). Here is the method: Figure 5 SPR analysis of the binding kinetics between SKM9-2 and mutants of minimum epitope. A soluble His-tagged mutant of minimum epitope (SKMepmin) was secreted from transfected HEK293T and immobilized as a ligand on the Ni^2+-binding sensor chip NTA. The upper sensorgrams show the binding kinetics of analyte (5 µg/mL of SKM9-2) to SKMepmins. The control without any peptide is shown as “No peptide” and the negative control peptide cycle is shown as “Control peptide”. The glycan-digested SKMepmin3 that was treated with Neuraminidase A and O-Glycosidase was used as the negative control peptide. The dissociation constant in the lower bar graph was calculated using the manufacturer’s instructions. RU, response units; Signal sequence, the artificial signal sequence (MAPLLLLLLPLLLLPPAAP).
as §2, §3, §1

Assay [5] deals with SKM9-2. The experiment in a line: Deglycosylation analysis: western blotting using SKM9-2 of neuraminidase-treated cell lysates. Type of assay: binding. The conditions noted are these: full-length HEG1, lysates of ACC-MESO4 (native) or HEG1-transfected HEK293T, 6% SDS-PAGE.
Text: Figure 8 SKM9-2 epitope produced from mesothelioma cells. (a) Chromatogram of SKMepmin3 separation using anion exchange column. SKMepmin3 produced from HEK293T (blue line) or ACC-MESO4 (pink line) was affinity-purified using SKM9-2-immobilized resins and separated by Mini Q 4.6/50 PE. A major peak of SKMepmin3 purified from HEK293T contained two disialyl T antigens (Fig. 6). (b) Western blotting for epitope-fused GPI-anchor protein (7.6231) treated with neuraminidases. Cell lysate of 7.6231-transfected ACC-MESO1 (top panel), ACC-MESO4 (middle panel), or HEK293T (lower panel) was treated with α2-3 Neuraminidase S or Neuraminidase A, resolved by 4–15% SDS-PAGE, and analyzed by western blotting using SKM9-2. (c) Western blotting for full-length HEG1 treated with neuraminidases. Cell lysates of ACC-MESO4 (upper panel) and HEG1-transfected HEK293T (lower panel) were treated with α2-3 Neuraminidase S or Neuraminidase A and analyzed by 6% SDS-PAGE and western blotting using SKM9-2. (d) Schematic of SKM9-2 epitope. Full-length blots are presented in Supplementary Fig. S10.
Monolayer cells were solubilized with 20 mM Tris buffer (pH 8.0) containing 1% SDS, 1 mM phenylmethylsulfonyl fluoride, 125 mU/mL Benzonase Nuclease (Merck Millipore Co., Tokyo, Japan) (25 µL/cm^2 culture surface area). The lysate (10 µL/lane) was resolved by SDS-PAGE under reducing conditions using 6% polyacrylamide gels or 4–15% precast gels (Bio-Rad Laboratories Inc., Hercules, CA, USA). Then it was transferred to a polyvinylidene difluoride membrane (Immobilon-P; Merck Millipore Co.) by semi-dry blotting in a buffer containing 25 mM Tris, 192 mM glycine, 0.1% SDS, and 20% methanol. The membrane was blocked with 5% non-fat milk in 20 mM Tris-buffered saline (pH 7.2) containing 0.1% Tween 20 and reacted with 1 µg/mL of mAb SKM9-2 or anti-FLAG (Anti-DYKDDDDK tag mAb; 1E6, Wako Pure Chemical Industries, Osaka, Japan). After washing, it was treated with horseradish peroxidase-conjugated goat anti-mouse IgG (Jackson ImmunoResearch, West Grove, PA, USA), and developed with Amersham ECL select (GE Healthcare, Buckinghamshire, UK). Although glycan in non-fat milk often interferes the glycan-dependent binding of an antibody, the SKM9-2 binding was not affected by the blocking using non-fat milk, in comparison with 5% bovine serum albumin (Supplementary Fig. S6).
as §3

As to “MAPLLLLLLPLLLLPPAAPGGSKAPSLVSLPAGGDYKDDDDKHHHHHHHH [SKMepmin3, minimum glycosylation peptide 893-…-903 -FLAG-Hisx8 with two disialyl T at Ser893 and Ser900]”, the “anti-sialyl Lewis^X antibody binding” value in assay [1] is “did not bind; also recorded: not bound”. For the same molecule, the Jacalin binding entry is “recognized” with Jacalin (SKMepmin3 desialylated with Neuraminidase A, Jacalin 5 µg/mL); “not” in the assay with Jacalin (deglycosylated SKMepmin3 (Neuraminidase A + O-Glycosidase), Jacalin 5 µg/mL); “did not bind” in the assay on Jacalin (non-treated SKMepmin3, Jacalin 5 µg/mL). Also, the rACG binding result in assay [2] is on record as “interacted”. The ABA binding entry is reported as “lost” in assay [3] (SKMepmin3 deglycosylated with O-Glycosidase and Neuraminidase A); “enhanced” in assay [3] (SKMepmin3 desialylated with Neuraminidase A); “bound” in assay [3] (non-treated SKMepmin3 as ligand). The Kd (in general, the constant that tells how readily two partners part at equilibrium) at SKM9-2 [4] (His-tagged SKMepmin secreted from transfected HEK293T immobilized on Ni2+-binding sensor chip NTA, analyte 5 µg/mL SKM9-2, running buffer 10 mM HEPES pH 8.1, 150 mM NaCl, 0.005% Tween-20, 50 µM EDTA, read-out: KD (M), dissociation constant) came to 2.82e-09 M. Further, in the assay with SKM9-2 [4] (SKMepmin3 desialylated with Neuraminidase A, SKM9-2 5 µg/mL), the “persistent binding of SKM9-2” value is recorded as “lost”. Besides, the SKM9-2 binding entry in the assay on SKM9-2 [4] (SKMepmin3 treated with α2–3 Neuraminidase S, SKM9-2 5 µg/mL) was “weakened”. Also, the “association rate between SKM9-2 and epitope peptide (in words)” value with SKM9-2 [4] (analyte 5 µg/mL SKM9-2, change caused by the substitution) is recorded as “increased”. Also, in the assay with SKM9-2 [4] (complete digest of glycan using O-Glycosidase (with Neuraminidase A), SKM9-2 5 µg/mL), the “interaction between SKM9-2 and SKMepmin3” value is “eliminated”.

B1: recombinant HEG1: full-length recombinant HEG1 (1-1481) expressed in HEK293T (protein, UniProt Q9ULI3 1-1381, looked up)
chain: MASPRASRWPPPLLLLLLPLLLLPPAAPGTRDPPPSPARRALSLAPLAGAGLELQLERRPEREPPPTPPRERRGPATPGPSYRAPEPGAATQRGPSGRAPRGGSADAAWKHWPESNTEAHVENITFYQNQEDFSTVSSKEGVMVQTSGKSHAASDAPENLTLLAETADARGRSGSSSRTNFTILPVGYSLEIATALTSQSGNLASESLHLPSSSSEFDERIAAFQTKSGTASEMGTERAMGLSEEWTVHSQEATTSAWSPSFLPALEMGELTTPSRKRNSSGPDLSWLHFYRTAASSPLLDLSSSSESTEKLNNSTGLQSSSVSQTKTMHVATVFTDGGPRTLRSLTVSLGPVSKTEGFPKDSRIATTSSSVLLSPSAVESRRNSRVTGNPGDEEFIEPSTENEFGLTSLRWQNDSPTFGEHQLASSSEVQNGSPMSQTETVSRSVAPMRGGEITAHWLLTNSTTSADVTGSSASYPEGVNASVLTQFSDSTVQSGGSHTALGDRSYSESSSTSSSESLNSSAPRGERSIAGISYGQVRGTAIEQRTSSDHTDHTYLSSTFTKGERALLSITDNSSSSDIVESSTSYIKISNSSHSEYSSFFHAQTERSNISSYDGEYAQPSTESPVLHTSNLPSYTPTINMPNTSVVLDTDAEFVSDSSSSSSSSSSSSSSGPPLPLPSVSQSHHLFSSILPSTRASVHLLKSTSDASTPWSSSPSPLPVSLTTSTSAPLSVSQTTLPQSSSTPVLPRARETPVTSFQTSTMTSFMTMLHSSQTADLKSQSTPHQEKVITESKSPSLVSLPTESTKAVTTNSPLPPSLTESSTEQTLPATSTNLAQMSPTFTTTILKTSQPLMTTPGTLSSTASLVTGPIAVQTTAGKQLSLTHPEILVPQISTEGGISTERNRVIVDATTGLIPLTSVPTSAKEMTTKLGVTAEYSPASRSLGTSPSPQTTVVSTAEDLAPKSATFAVQSSTQSPTTVSSSASVNSCAVNPCLHNGECVADNTSRGYHCRCPPSWQGDDCSVDVNECLSNPCPSTAMCNNTQGSFICKCPVGYQLEKGICNLVRTFVTEFKLKRTFLNTTVEKHSDLQEVENEITKTLNMCFSALPSYIRSTVHASRESNAVVISLQTTFSLASNVTLFDLADRMQKCVNSCKSSAEVCQLLGSQRRIFRAGSLCKRKSPECDKDTSICTDLDGVALCQCKSGYFQFNKMDHSCRACEDGYRLENETCMSCPFGLGGLNCGNPYQLITVVIAAAGGGLLLILGIALIVTCCRKNKNDISKLIFKSGDFQMSPYAEYPKNPRSQEWGREAIEMHENGSTKNLLQMTDVYYSPTSVRNPELERNGLYPAYTGLPGSRHSCIFPGQYNPSFISDESRRRDYF
modifications: full-length FLAG tag
notes: full-length recombinant HEG1 (1-1481) expressed in HEK293T
As for B1, the “SKM9-2 binding (western blot)” value is given as “lost” with SKM9-2 [5] (Neuraminidase A) and “weakened” with SKM9-2 [5] (α2–3 Neuraminidase S).
